Reference: patent publication US7582628B2, “Pyrrolo[3,4-c]pyrazole derivatives active as kinase inhibitors, process for their preparation and pharmaceutical compositions comprising them” (Pfizer Italia S.r.l., priority 2003, dated 2009)
Each block holds one molecule with its values, some of them ahead of it.

Key:
HCT-116 [1] = assay: In vitro cell cycle analysis; type: cell-based, human; conditions: HCT-116, 200 nM, treated for 24 hours
Protocol: In Vitro Cell Cycle Analysis
The human colon cancer cell line HCT-116 was seeded at 5000 cells/cm2 in 24 wells plate (Costar) and cultured as mentioned above. Cells in their exponential phase of growth were treated for 24 hours with different concentrations of compound. Also, culture medium supernatant was collected to avoid loss of detached apoptotic or mitotic cells. Thereafter, cells were washed using PBS and detached by 0.05% (w/v) trypsin, 0.02% (w/v) EDTA (Gibco). Trypsin activity was stopped using culture medium. Adherent and non-adherent cell fractions were pooled and centrifuged at 2000 rpm for 10 minutes. Cells were re-suspended in PBS and counted using a Multisizer 3 cell counter (Beckman Coulter). For fixation, ethanol was added (70%, v/v) and cells were kept at −20° C. overnight.
One million fixed cells were centrifuged at 2000 rpm for 5 minutes and washed with PBS and subsequently stained for 1 hour at room temperature in the dark by adding 200 µl: 25 µg/ml propidium iodide (Sigma) and 15 ug/ml RNAse A (Sigma), 0.001% (v/v) Nonidet P40 (Sigma) in sodium citrate (0.1% w/v, pH 7.5). Samples were analyzed by flow cytometry at 488 nm excitation (FACSCalibur, Beckton Dickinson) using Cell Quest 3.0 software (Beckton Dickinson). Typically 10000 events (activating doubles discriminate module DDM and gating only single cells) were collected and cell cycle profiles were recorded using CellQuest (Verity Software). Cell Cycle distribution of the population was calculated using a modified model in Modfit 3.1 software (Verity Software) and expressed in % G0/G1, S, G2/M and polyploidy.

HCT-116 [2] = assay: In vitro cell proliferation assay; type: cell-based; conditions: Homo sapiens; HCT-116, 72 hours of treatment; read-out: Cell Antiproliferation IC50
Protocol: In Vitro Cell Proliferation Assay
The human colon cancer cell line HCT-116 was seeded at 5000 cells/cm2 in 24 wells plate (Costar) using F12 medium (Gibco) supplemented with 10% FCS (EuroClone, Italy) 2 mM L-glutamine and 1% penicillin/streptomycin and maintained at 37° C., 5% CO2 and 96% relative humidity. The following day, plates were treated in duplicates with 5 ul of an appropriate dilution of compounds starting from a 10 mM stock in DMSO. Two untreated control wells were included in each plate. After 72 hours of treatment, medium was withdrawn and cells detached from each well using 0.5 ml of 0.05% (w/v) Trypsin, 0.02% (w/v) EDTA (Gibco). Samples were diluted with 9.5 ml of Isoton (Coulter) and counted using a Multisizer 3 cell counter (Beckman Coulter). Data were evaluated as percent of the control wells: % of CTR=(Treated−Blank)/(Control−Blank).
IC50 values were calculated by LSW/Data Analysis using Microsoft Excel sigmoidal curve fitting.

Aurora-2 = target: T1, Aurora-2 (Homo sapiens, UniProt O14965); assay: Inhibition assay of Aurora-2 activity (SPA); type: biochemical; conditions: 10 μM ATP, 60 minutes at room temperature
T1 sequence (O14965 1-403): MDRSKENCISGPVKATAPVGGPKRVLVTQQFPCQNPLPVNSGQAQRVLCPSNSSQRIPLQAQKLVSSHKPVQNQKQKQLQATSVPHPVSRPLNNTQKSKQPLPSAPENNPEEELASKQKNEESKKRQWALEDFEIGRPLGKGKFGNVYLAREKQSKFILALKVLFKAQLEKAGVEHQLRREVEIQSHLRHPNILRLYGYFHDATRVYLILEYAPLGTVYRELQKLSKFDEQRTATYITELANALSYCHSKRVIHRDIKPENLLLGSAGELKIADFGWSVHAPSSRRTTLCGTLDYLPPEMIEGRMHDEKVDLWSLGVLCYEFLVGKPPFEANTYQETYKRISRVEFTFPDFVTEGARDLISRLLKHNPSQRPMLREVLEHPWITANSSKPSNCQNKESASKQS
Protocol: The inhibiting activity and the potency of selected compounds is determined through a method of assay based on the use of the SPA technology (Amersham Pharmacia Biotech). The assay consists of the transfer of radioactivity labelled phosphate moiety by the kinase to a biotinylated substrate. The resulting 33P-labelled biotinylated product is allowed to bind to streptavidin-coated SPA beads (biotin capacity 130 pmol/mg), and light emitted was measured in a scintillation counter.
Inhibition Assay of Aurora-2 Activity
Kinase reaction: 8 μM biotinylated peptide (4 repeats of LRRWSLG), 10 μM ATP (0.5 uCi P^33γ-ATP), 7.5 ng Aurora 2, inhibitor in a final volume of 30 μl buffer (HEPES 50 mM pH 7.0, MgCl2 10 mM, 1 mM DTT, 0.2 mg/ml BSA, 3 μM orthovanadate) were added to each well of a 96 U bottom well plate. After 60 minutes at room temperature incubation, reaction was stopped and biotinylated peptide captured by adding 100 μl of bead suspension.
Stratification: 100 μl of CsCl2 5 M were added to each well and let stand 4 hour before radioactivity was counted in the Top-Count instrument.
IC50 determination: inhibitors were tested at different concentrations ranging from 0.0015 to 10 μM. Experimental data were analyzed by the computer program GraphPad Prizm using the four parameter logistic equation: y=bottom+(top−bottom)/(1+10^((log IC50−x)*slope)) where x is the logarithm of the inhibitor concentration, y is the response; y starts at bottom and goes to top with a sigmoid shape.

IC50 (HCT-116 [2]): 31 nM
SMILES: CO[C@@H](C(=O)N1Cc2[nH]nc(NC(=O)c3ccc(N4CCN(C)CC4)cc3)c2C1)c1ccccc1 [Compound (1), N-{5-[(2R)-2-methoxy-2-phenylethanoyl]-1,4,5,6-tetrahydropyrrolo[3,4-c]pyrazol-3-yl}-4-(4-methylpiperazin-1-yl)benzamide]
Cell Cycle block (% G2/M + polyploidy at 200 nM) (HCT-116 [1]): 90%

IC50 (Aurora-2): 18 nM
IC50 (HCT-116 [2]): 50 nM
SMILES: CO[C@@H](C(=O)N1Cc2[nH]nc(NC(=O)c3ccc(N4CCN(C)C(C)C4)cc3)c2C1)c1ccccc1 (stereo partly drawn) [Compound (5), 4-(3,4-dimethylpiperazin-1-yl)-N-{5-[(2R)-2-methoxy-2-phenylethanoyl]-1,4,5,6-tetrahydropyrrolo[3,4-c]pyrazol-3-yl}benzamide]
Cell Cycle block (% G2/M + polyploidy at 200 nM) (HCT-116 [1]): 90%

IC50 (Aurora-2): 37 nM
IC50 (HCT-116 [2]): 30 nM
SMILES: CO[C@@H](C(=O)N1Cc2[nH]nc(NC(=O)c3ccc(N4CCCCC4)cc3)c2C1)c1ccccc1 [Compound (6), N-{5-[(2R)-2-methoxy-2-phenylethanoyl]-1,4,5,6-tetrahydropyrrolo[3,4-c]pyrazol-3-yl}-4-piperidin-1-ylbenzamide]
Cell Cycle block (% G2/M + polyploidy at 200 nM) (HCT-116 [1]): 90%

Continued, molecule first:

SMILES: CN1CCN(c2ccc(C(=O)Nc3[nH]nc4c3CN(C(=O)Cc3ccccc3)C4)cc2)CC1 [Reference compound, N-{5-phenylacetyl-4,6-dihydropyrrolo[3,4-c]pyrazol-3-yl}-4-(4-methylpiperazino)benzamide, reference compound]
IC50 (Aurora-2): 140 nM
Cell Cycle block (% G2/M + polyploidy at 200 nM) (HCT-116 [1]): 33%
IC50 (HCT-116 [2]): 220 nM

SMILES: C[C@@H](C(=O)N1Cc2[nH]nc(NC(=O)c3ccc(N4CCN(C)CC4)cc3)c2C1)c1ccccc1 [Compound (11), N-{5-[(2R)-2-methyl-2-phenylethanoyl]-1,4,5,6-tetrahydropyrrolo[3,4-c]pyrazol-3-yl}-4-(4-methylpiperazin-1-yl)benzamide]
IC50 (Aurora-2): 63 nM
Cell Cycle block (% G2/M + polyploidy at 200 nM) (HCT-116 [1]): 90%
IC50 (HCT-116 [2]): 17 nM
